Results: the supplement of paper PMC11451515

Test system: SEM cells
Experiment: cell viability relative to DMSO control; higher = less cytotoxic
Settings: 48 h
Outline: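 Cells were incubated for 48 h at 37°C before CellTiter-Glo One luminescence was read. The cells were NOMO1 or SEM (500 cells/well) or P12-Ichikawa (1000 cells/well) leukemia cells, adapted for at least four passages in each medium and seeded in 1536-well plates (5 μl). Dosing used library compounds in DMSO applied by pin over 11 threefold points, 47 μM to 0.79 nM. Viability is the per-plate percentage of DMSO wells, with cell-free wells as background.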

[1] = HPLM + 10% dialyzed FBS, 0.000781 µM
[2] = HPLM + 10% dialyzed FBS, 0.00234 µM
[3] = HPLM + 10% dialyzed FBS, 0.00702 µM
[4] = HPLM + 10% dialyzed FBS, 0.0211 µM
[5] = HPLM + 10% dialyzed FBS, 0.0632 µM
[6] = HPLM + 10% dialyzed FBS, 0.19 µM
[7] = HPLM + 10% dialyzed FBS, 0.569 µM
[8] = HPLM + 10% dialyzed FBS, 1.71 µM
[9] = HPLM + 10% dialyzed FBS, 5.12 µM
[10] = HPLM + 10% dialyzed FBS, 15.4 µM
[11] = HPLM + 10% dialyzed FBS, 46.1 µM
[12] = RPMI 5 mM glucose + 10% FBS, 0.000781 µM
[13] = RPMI 5 mM glucose + 10% FBS, 0.00234 µM
[14] = RPMI 5 mM glucose + 10% FBS, 0.00702 µM
[15] = RPMI 5 mM glucose + 10% FBS, 0.0211 µM
[16] = RPMI 5 mM glucose + 10% FBS, 0.0632 µM
[17] = RPMI 5 mM glucose + 10% FBS, 0.19 µM
[18] = RPMI 5 mM glucose + 10% FBS, 0.569 µM
[19] = RPMI 5 mM glucose + 10% FBS, 1.71 µM
[20] = RPMI 5 mM glucose + 10% FBS, 5.12 µM
[21] = RPMI 5 mM glucose + 10% FBS, 15.4 µM
[22] = RPMI 5 mM glucose + 10% FBS, 46.1 µM
[23] = RPMI 5 mM glucose + 10% dialyzed FBS, 0.000781 µM
[24] = RPMI 5 mM glucose + 10% dialyzed FBS, 0.00234 µM
[25] = RPMI 5 mM glucose + 10% dialyzed FBS, 0.00702 µM
[26] = RPMI 5 mM glucose + 10% dialyzed FBS, 0.0211 µM
[27] = RPMI 5 mM glucose + 10% dialyzed FBS, 0.0632 µM
[28] = RPMI 5 mM glucose + 10% dialyzed FBS, 0.19 µM
[29] = RPMI 5 mM glucose + 10% dialyzed FBS, 0.569 µM
[30] = RPMI 5 mM glucose + 10% dialyzed FBS, 1.71 µM
[31] = RPMI 5 mM glucose + 10% dialyzed FBS, 5.12 µM
[32] = RPMI 5 mM glucose + 10% dialyzed FBS, 15.4 µM
[33] = RPMI 5 mM glucose + 10% dialyzed FBS, 46.1 µM

SMILES	cell viability [1]	cell viability [2]	cell viability [3]	cell viability [4]	cell viability [5]	cell viability [6]	cell viability [7]	cell viability [8]	cell viability [9]	cell viability [10]	cell viability [11]	cell viability [12]	cell viability [13]	cell viability [14]	cell viability [15]	cell viability [16]	cell viability [17]	cell viability [18]	cell viability [19]	cell viability [20]	cell viability [21]	cell viability [22]	cell viability [23]	cell viability [24]	cell viability [25]	cell viability [26]	cell viability [27]	cell viability [28]	cell viability [29]	cell viability [30]	cell viability [31]	cell viability [32]	cell viability [33]
Cc1c(-c2cccc3c(CCCOc4cccc5ccccc45)c(C(=O)O)n(Cc4cccnc4)c23)c(COc2ccc(N3CCN([S+](=O)([O-])N(C)C)CC3)cc2)nn1C	92.3%	99.5%	85.1%	85.2%	104%	82.8%	83.5%	97.6%	81%	79.2%	48.3%	100%	108%	86.2%	129%	111%	128%	112%	114%	102%	95.5%	54.8%	107%	99.1%	80.5%	83.2%	100%	91.5%	109%	96.5%	77.1%	70%	43%
CN1CCN(c2c(F)cc3c(=O)c(C(=O)O)cn(CCF)c3c2F)CC1	84.2%	85.3%	103%	118%	108%	105%	100%	109%	109%	105%	110%	96.4%	96.4%	108%	105%	110%	104%	116%	111%	125%	118%	101%	105%	92.6%	123%	113%	111%	112%	117%	129%	111%	114%	118%
Cc1ccccc1C(OCCN(C)C)c1ccccc1 (centres undefined)	102%	95.2%	106%	101%	105%	119%	120%	115%	117%	117%	99.1%	105%	108%	128%	115%	98.9%	109%	124%	121%	107%	103%	99.4%	99.3%	109%	116%	120%	124%	125%	122%	130%	121%	115%	114%
